One experiment addresses T1, EGFR L858R (Homo sapiens, UniProt P00533, L858R).
T1 construct: purchased SignalChem E10-122BG
The experiment can be described thus: Biochemical EGFR inhibition assay (Caliper mobility shift), EGFR L858R. The conditions noted are these: biochemical Caliper mobility shift assay, EGFR L858R enzyme; read-out: Enz EGFR L858R IC50. Summed up: (§1)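 Mobility-shift readout: phosphorylated and unphosphorylated 5-FAM peptide (2.5 µM) separated electrophoretically. Reactions at room temperature (25 °C), 1.0 mM ATP or ATP Km, HEPES pH 7.5 with MgCl2, Brij-35, DTT and 1.0% DMSO; terminated at 10–20% turnover with 35 mM EDTA. Apparent IC50 fitted.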

The next experiment concerns the target T2, EGFR (d746-750) (Homo sapiens, UniProt P00533, DEL746-750).
T2 construct: purchased SignalChem E10-122JG
Nature of the experiment: Biochemical EGFR inhibition assay (Caliper mobility shift), EGFR (d746-750). To be noted: biochemical Caliper mobility shift assay, EGFR Exon 19-del enzyme; read-out: Enz EGFR Exon 19-del IC50. Put shortly:
as §1

For experiment [1], the target named is intracellular phosphorylation of EGFR (Tyr1068) in PC-9 cells (Homo sapiens, UniProt P00533, DEL746-750). The experiment can be described thus: PC-9 pEGFR AlphaLISA assay. Format: cell-based. The conditions noted are these: 4 hours incubation, read-out: Phos EGFR PC9 IC50. Summed up: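 PC-9 cells (EGFR del746-750) in phenol-free DMEM/10% FBS, adhered overnight, then exposed to 10-point 4-fold compound dilutions for 4 h at 37 °C. Lysates assayed for pEGFR Tyr1068 by AlphaLISA SureFire Ultra; IC50 from percent pEGFR inhibition vs log concentration.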
intracellular phosphorylation of EGFR (Tyr1068) in PC-9 cells, sequence (P00533 with tags, fused parts or gaps DEL746-750): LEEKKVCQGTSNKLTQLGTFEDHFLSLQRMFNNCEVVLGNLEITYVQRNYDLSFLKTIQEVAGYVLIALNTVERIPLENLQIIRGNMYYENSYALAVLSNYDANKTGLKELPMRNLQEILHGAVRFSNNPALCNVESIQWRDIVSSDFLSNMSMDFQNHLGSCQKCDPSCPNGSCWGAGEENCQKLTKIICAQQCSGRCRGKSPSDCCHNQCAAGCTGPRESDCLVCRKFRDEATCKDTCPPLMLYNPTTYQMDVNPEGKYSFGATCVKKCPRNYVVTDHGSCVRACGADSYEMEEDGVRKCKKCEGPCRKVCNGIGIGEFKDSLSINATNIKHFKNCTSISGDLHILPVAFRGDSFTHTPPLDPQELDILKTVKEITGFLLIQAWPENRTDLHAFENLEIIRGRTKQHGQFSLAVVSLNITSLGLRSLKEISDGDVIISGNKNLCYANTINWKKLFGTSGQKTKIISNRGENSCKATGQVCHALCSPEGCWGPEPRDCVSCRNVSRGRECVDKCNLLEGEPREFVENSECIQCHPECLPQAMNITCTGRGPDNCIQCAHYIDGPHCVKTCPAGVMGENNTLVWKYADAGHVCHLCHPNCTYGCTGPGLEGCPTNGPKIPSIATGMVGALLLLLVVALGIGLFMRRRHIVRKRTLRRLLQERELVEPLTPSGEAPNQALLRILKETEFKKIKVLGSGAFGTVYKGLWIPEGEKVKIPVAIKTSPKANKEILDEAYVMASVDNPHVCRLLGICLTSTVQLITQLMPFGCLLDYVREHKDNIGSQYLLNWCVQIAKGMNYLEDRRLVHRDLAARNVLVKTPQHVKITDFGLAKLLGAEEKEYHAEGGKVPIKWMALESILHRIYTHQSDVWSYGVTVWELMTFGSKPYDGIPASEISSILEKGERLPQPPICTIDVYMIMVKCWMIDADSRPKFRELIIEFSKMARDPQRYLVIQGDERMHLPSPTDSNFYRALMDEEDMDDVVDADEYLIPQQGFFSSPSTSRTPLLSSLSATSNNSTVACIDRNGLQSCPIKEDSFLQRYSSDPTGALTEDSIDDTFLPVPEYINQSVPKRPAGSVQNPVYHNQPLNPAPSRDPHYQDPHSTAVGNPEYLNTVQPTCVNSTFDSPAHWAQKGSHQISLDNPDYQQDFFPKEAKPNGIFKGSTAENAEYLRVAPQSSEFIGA
(In Alpha technology, singlet oxygen from a donor bead excites a nearby acceptor bead.)

A value given as a limit tells only on which side of the number the result lay.

T2 sequence (P00533 with tags, fused parts or gaps DEL746-750 limits assumed): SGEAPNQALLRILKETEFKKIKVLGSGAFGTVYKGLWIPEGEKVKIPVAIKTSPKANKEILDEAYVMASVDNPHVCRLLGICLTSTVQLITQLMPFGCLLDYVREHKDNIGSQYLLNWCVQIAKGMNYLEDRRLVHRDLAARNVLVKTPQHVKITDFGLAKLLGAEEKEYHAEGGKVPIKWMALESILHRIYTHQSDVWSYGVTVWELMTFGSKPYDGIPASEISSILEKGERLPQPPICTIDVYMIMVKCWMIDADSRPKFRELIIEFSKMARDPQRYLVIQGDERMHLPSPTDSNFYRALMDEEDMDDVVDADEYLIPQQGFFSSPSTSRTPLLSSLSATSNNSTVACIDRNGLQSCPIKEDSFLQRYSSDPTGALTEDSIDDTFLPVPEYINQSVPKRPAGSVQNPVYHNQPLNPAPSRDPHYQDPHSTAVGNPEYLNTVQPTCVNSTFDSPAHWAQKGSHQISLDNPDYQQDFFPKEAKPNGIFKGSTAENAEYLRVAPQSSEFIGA
T1 sequence (P00533 25-1210 L858R): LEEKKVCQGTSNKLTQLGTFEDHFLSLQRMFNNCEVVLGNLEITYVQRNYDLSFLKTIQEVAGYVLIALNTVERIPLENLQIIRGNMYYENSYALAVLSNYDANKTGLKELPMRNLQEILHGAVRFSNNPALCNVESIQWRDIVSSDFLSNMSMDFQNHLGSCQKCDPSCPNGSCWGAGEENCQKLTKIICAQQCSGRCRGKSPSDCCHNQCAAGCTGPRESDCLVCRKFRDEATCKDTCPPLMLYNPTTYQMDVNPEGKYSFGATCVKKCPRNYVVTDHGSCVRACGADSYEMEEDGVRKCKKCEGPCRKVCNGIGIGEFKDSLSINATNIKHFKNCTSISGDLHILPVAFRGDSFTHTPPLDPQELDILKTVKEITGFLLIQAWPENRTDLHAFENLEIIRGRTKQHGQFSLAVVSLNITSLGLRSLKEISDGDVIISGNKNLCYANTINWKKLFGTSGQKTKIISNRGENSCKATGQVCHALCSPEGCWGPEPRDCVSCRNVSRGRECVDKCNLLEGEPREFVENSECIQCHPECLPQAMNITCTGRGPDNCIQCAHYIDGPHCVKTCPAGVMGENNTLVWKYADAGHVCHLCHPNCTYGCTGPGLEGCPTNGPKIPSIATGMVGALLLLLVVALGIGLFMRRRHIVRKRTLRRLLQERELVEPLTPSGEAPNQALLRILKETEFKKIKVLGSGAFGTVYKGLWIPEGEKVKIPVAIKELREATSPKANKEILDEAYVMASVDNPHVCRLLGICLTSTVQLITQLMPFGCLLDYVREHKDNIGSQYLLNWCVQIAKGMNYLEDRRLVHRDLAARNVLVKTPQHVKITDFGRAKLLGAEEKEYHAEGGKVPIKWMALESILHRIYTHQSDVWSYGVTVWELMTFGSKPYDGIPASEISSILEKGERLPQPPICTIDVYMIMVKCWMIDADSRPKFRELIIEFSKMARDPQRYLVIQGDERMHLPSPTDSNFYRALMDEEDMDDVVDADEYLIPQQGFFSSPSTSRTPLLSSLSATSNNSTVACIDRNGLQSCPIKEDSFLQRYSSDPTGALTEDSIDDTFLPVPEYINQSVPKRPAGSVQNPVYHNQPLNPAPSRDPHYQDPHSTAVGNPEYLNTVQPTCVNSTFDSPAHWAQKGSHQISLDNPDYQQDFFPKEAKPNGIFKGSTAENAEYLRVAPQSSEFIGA

For the molecule `CN1CC[C@@H]2CN(C(=O)Nc3cc4c(Nc5ccc6ncsc6c5)ncnc4cc3-c3ccn(C)n3)C[C@@H]21` [Example 252, (3aR,6aR)-N-(4-(benzo[d]thiazol-6-ylamino)-7-(1-methyl-1H-pyrazol-3-yl)quinazolin-6-yl)-1-methylhexahydropyrrolo[3,4-b]pyrrole-5(1H)-carboxamide], the IC50 (on EGFR L858R; on EGFR (d746-750); in experiment [1]) was at most 10 nM each time.
Regarding `C[C@@H](Oc1cc(-c2cnn(C)c2)cc2ncnc(Nc3ccc4ncsc4c3)c12)C(CO)CO` [Example A56, (R)-2-(1-((4-(benzo[d]thiazol-6-ylamino)-7-(1-methyl-1H-pyrazol-4-yl)quinazolin-5-yl)oxy)ethyl)propane-1,3-diol], the IC50 (at EGFR L858R; at EGFR (d746-750); in experiment [1]) was at most 10 nM throughout.
Consider `CN1CC[C@H](O)[C@@H](Oc2cc(-c3cnn(C)c3)cc3ncnc(Nc4ccc5ncsc5c4)c23)C1` (single isomer, unassigned) [Example A33], for which the IC50 (on EGFR L858R; on EGFR (d746-750); in experiment [1]) was at most 10 nM in each case.
Consider `CN1CC[C@H](Nc2cc3c(Nc4ccc5ncsc5c4)ncnc3cc2-c2ccn(C)n2)[C@H](F)C1` (single isomer, unassigned) [Example A05, N4-(benzo[d]thiazol-6-yl)-N6-((3R,4S)-3-fluoro-1-methylpiperidin-4-yl)-7-(1-methyl-1H-pyrazol-3-yl)quinazoline-4,6-diamine or N4-(benzo[d]thiazol-6-yl)-N6-((3S,4R)-3-fluoro-1-methylpiperidin-4-yl)-7-(1-methyl-1H-pyrazol-3-yl)quinazoline-4,6-diamine], for which the IC50 (at EGFR L858R; at EGFR (d746-750); in experiment [1]) was at most 10 nM in each case.
In the case of `C[C@@H](Oc1cc(-c2cnn(C)c2)cc2ncnc(Nc3ccc4ncsc4c3F)c12)C(=O)N(C)C` (single isomer, unassigned) [Example 279], the 50% inhibitory concentration (IC50) (at EGFR L858R; on EGFR (d746-750); in experiment [1]) was at most 10 nM throughout.
For `CN1CCC(Nc2cc3c(Nc4ccc5ncsc5c4)ncnc3cc2-c2ccn(C)n2)CC1` [Example 258, N4-(benzo[d]thiazol-6-yl)-7-(1-methyl-1H-pyrazol-3-yl)-N6-(1-methylpiperidin-4-yl)quinazoline-4,6-diamine], the IC50 (at EGFR L858R; at EGFR (d746-750); in experiment [1]) was at most 10 nM each time.
With `Cn1cc(-c2cc(OC3COCC3(F)F)c3c(Nc4ccc5ncsc5c4)ncnc3c2)cn1` (stereo not drawn) [Example 14, N-(5-((4,4-difluorotetrahydrofuran-3-yl)oxy)-7-(1-methyl-1H-pyrazol-4-yl)quinazolin-4-yl)benzo[d]thiazol-6-amine], the IC50 (commonly the midpoint of a concentration-inhibition curve) on EGFR L858R was at most 10 nM; at EGFR (d746-750) it was at most 10 nM; in experiment [1] it was 10.1 to 50 nM.
For `C[C@H](CN1CCC1)Oc1cc(-c2cnn(C)c2)cc2ncnc(Nc3ccc4ncsc4c3)c12` [Example 394, (R)-N-(5-((1-(azetidin-1-yl)propan-2-yl)oxy)-7-(1-methyl-1H-pyrazol-4-yl)quinazolin-4-yl)benzo[d]thiazol-6-amine], the IC50 (at EGFR L858R; on EGFR (d746-750); in experiment [1]) was at most 10 nM throughout.
For `Cn1cc(-c2cc(O[C@H]3C[C@H](O)C3)c3c(Nc4ccc5ncsc5c4)ncnc3c2)cn1` [Example 19, trans-3-((4-(benzo[d]thiazol-6-ylamino)-7-(1-methyl-1H-pyrazol-4-yl)quinazolin-5-yl)oxy)cyclobutan-1-ol], the IC50 (on EGFR L858R; at EGFR (d746-750); in experiment [1]) was at most 10 nM in each case.
As for `Cn1cc(-c2cc(OC(CO)CO)c3c(Nc4ccc5ncsc5c4)ncnc3c2)cn1` [Example 29, 2-((4-(benzo[d]thiazol-6-ylamino)-7-(1-methyl-1H-pyrazol-4-yl)quinazolin-5-yl)oxy)propane-1,3-diol], the results for the IC50 (at EGFR L858R; on EGFR (d746-750); in experiment [1]) were at most 10 nM, at most 10 nM and 10.1 to 50 nM, respectively.
